Measurements as given in patent US20250179000A1 (Sanford Burnham Prebys Medical Discovery Institute, priority 2021, published 2025).
Blank lines part the entries; values can stand above or below the molecule they belong to.

Assays:
Rat mGlu2 = molecular target: T1, Rat mGlu2 (Rattus norvegicus, UniProt P31421); experiment: mGlu receptor in vitro assay, thallium flux through GIRK channels, rat mGlu2; assay type: cell-based; settings: PAM potency with EC20 glutamate
T1 construct: expressed in transfected cells; host or cells: HEK-293 co-expressing GIRK channels
Procedure: (§1) Human Embryonic Kidney (HEK-293) cell lines co-expressing rat mGlu receptors 2, 3, 4, 6, 7 or 8 and G protein-coupled inwardly-rectifying potassium (GIRK) channels were grown in Growth Media containing 45% DMEM, 45% F-12, 10% FBS, 20 mM HEPES, 2 mM L-glutamine, antibiotic/antimycotic, non-essential amino acids, 700 μg/mL G418, and 0.6 μg/ml puromycin at 37° C. in the presence of 5% CO2. […] All cell culture reagents were purchased from Invitrogen Corp. (Carlsbad, CA) unless otherwise noted. Calcium assays were used to assess activity of compounds at mGlu1 and mGlu5, as previously described in Engers et al (J. Med. Chem. 2009, 52, 4115-4118). Calcium assays at mGlu3 were performed as described for mGlu5 with the exception that TREx293 mGlu3 Gα15 cells were treated with tetracycline at 20 ng/mL for 20 h prior to assay.
(§2) Compound activity at the group II (mGlu2 and mGlu3) and group III (mGlu4, mGlu6, mGlu7, and mGlu8) was assessed using thallium flux through GIRK channels, a method that has been described in detail. Briefly, cells were plated into 384-well, black-walled, clear-bottomed poly-D-lysine-coated plates at a density of 15,000 cells/20 μL/well in DMEM containing 10% dialyzed FBS, 20 mM HEPES, and 100 units/mL penicillin/streptomycin (assay media). Plated cells were incubated overnight at 37° C. in the presence of 5% CO2. The following day, the medium was exchanged from the cells to assay buffer [Hanks' balanced salt solution (Invitrogen) containing 20 mM HEPES, pH 7.3] using an ELX405 microplate washer (BioTek), leaving 20 μL/well, followed by the addition of 20 μL/well FluoZin2-AM (330 nM final concentration) indicator dye (Invitrogen; prepared as a stock in DMSO and mixed in a 1:1 ratio with Pluronic acid F-127) in assay buffer. Cells were incubated for 1 h at room temperature, and the dye exchanged to assay buffer using an ELX405, leaving 20 μL/well. Test compounds were diluted to 2 times their final desired concentration in assay buffer (0.3% DMSO final concentration). Agonists were diluted in thallium buffer [125 mM sodium bicarbonate (added fresh the morning of the experiment), 1 mM magnesium sulfate, 1.8 mM calcium sulfate, 5 mM glucose, 12 mM thallium sulfate, and 10 mM HEPES, pH 7.3] at 5 times the final concentration to be assayed. Cell plates and compound plates were loaded onto a kinetic imaging plate reader (FDSS 6000 or 7000; Hamamatsu Corporation, Bridgewater, NJ). Appropriate baseline readings were taken (10 images at 1 Hz; excitation, 470±20 nm; emission, 540±30 nm) and test compounds were added in a 20 μL volume and incubated for approximately 2.5 min before the addition of 10 μL of thallium buffer with or without agonist. After the addition of agonist, data were collected for approximately an additional 2.5 min. Data were analyzed using Excel (Microsoft Corp, Redmond, WA). The slope of the fluorescence increase beginning 5 s after thallium/agonist addition and ending 15 s after thallium/agonist addition was calculated, corrected to vehicle and maximal agonist control slope values, and plotted in using either XLfit (ID Business Solutions Ltd) or Prism software (GraphPad Software, San Diego, CA) to generate concentration-response curves. Potencies were calculated from fits using a four-point parameter logistic equation. For concentration-response curve experiments, compounds were serially diluted 1:3 into 10-point concentration response curves and were transferred to daughter plates using an Echo acoustic plate reformatter (Labcyte, Sunnyvale, CA). Test compounds were applied and followed by EC20 concentrations of glutamate.

Rat mGlu3 = molecular target: T2, Rat mGlu3 (Rattus norvegicus, UniProt P31422); experiment: mGlu receptor in vitro assay (thallium flux through GIRK channels / calcium assay), rat mGlu3; assay type: cell-based; settings: PAM potency with EC20 glutamate
T2 construct: expressed in transfected cells; host or cells: HEK-293 co-expressing GIRK channels
Procedure: as §1, §2

T2 sequence (P31422 23-879): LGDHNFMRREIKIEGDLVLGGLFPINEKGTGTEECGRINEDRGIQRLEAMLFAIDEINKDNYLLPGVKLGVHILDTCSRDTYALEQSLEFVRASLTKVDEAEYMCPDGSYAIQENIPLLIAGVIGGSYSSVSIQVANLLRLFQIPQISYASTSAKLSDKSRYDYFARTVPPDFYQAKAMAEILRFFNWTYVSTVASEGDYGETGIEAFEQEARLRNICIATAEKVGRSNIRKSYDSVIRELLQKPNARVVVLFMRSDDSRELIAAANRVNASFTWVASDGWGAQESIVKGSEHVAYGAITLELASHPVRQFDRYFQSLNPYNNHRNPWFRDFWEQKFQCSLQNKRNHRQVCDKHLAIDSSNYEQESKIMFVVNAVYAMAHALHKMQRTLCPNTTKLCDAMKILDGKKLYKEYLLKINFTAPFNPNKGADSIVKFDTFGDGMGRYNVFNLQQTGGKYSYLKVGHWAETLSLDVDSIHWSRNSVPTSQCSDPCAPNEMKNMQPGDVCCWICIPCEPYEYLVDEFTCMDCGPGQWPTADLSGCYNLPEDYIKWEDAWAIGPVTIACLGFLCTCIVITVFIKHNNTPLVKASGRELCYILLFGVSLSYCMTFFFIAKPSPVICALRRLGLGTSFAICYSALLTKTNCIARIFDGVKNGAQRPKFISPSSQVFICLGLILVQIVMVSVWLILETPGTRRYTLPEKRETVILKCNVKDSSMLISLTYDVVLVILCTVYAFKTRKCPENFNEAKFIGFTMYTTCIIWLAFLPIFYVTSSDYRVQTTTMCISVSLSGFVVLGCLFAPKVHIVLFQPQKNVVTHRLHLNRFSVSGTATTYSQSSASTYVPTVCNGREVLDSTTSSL
T1 sequence (P31421 19-872): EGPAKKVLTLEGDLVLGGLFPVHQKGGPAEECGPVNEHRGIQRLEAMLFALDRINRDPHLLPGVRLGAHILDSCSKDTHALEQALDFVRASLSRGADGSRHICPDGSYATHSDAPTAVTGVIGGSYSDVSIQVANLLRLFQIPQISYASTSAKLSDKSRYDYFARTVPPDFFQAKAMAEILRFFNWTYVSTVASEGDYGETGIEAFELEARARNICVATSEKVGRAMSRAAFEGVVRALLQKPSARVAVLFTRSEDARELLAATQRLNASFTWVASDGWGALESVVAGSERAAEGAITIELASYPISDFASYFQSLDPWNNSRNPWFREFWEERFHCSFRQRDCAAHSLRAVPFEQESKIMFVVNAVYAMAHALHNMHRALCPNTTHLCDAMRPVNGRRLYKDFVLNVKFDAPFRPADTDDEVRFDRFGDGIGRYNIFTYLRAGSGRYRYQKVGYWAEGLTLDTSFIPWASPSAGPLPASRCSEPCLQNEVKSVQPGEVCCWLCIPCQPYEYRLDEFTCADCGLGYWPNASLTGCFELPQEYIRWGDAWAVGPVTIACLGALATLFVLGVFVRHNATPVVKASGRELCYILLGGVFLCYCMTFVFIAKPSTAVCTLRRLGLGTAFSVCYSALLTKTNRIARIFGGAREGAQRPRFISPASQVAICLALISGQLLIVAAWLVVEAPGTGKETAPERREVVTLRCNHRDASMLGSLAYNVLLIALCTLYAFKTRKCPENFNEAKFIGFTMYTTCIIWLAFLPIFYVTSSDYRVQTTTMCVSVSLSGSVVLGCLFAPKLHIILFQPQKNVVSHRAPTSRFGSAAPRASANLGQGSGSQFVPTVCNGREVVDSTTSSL

SMILES: Cc1c(OCc2cnc(-c3cccc(NC(=O)NS(C)(=O)=O)c3)cn2)ccc(C(=O)CC(C)(C)C)c1O [compound 89, N-((3-(5-((4-(3,3-Dimethylbutanoyl)-3-hydroxy-2-methylphenoxy)methyl)pyrazin-2-yl)phenyl)carbamoyl)methanesulfonamide]
EC50 (Rat mGlu2): 2380 nM
EC50 (Rat mGlu3): 4670 nM

SMILES: COc1ccc(C(=O)O)cc1OCCCCOc1ccc(C(O)CC(C)(C)C)c(O)c1C (stereo not shown) [compound 96, 3-{4-[3-Hydroxy-4-(1-hydroxy-3,3-dimethylbutyl)-2-methylphenoxy]butoxy}-4-methoxybenzoic acid]
EC50 (Rat mGlu2): 1640 nM
EC50 (Rat mGlu3): > 10000 nM

SMILES: Cc1c(Oc2cccc(C(=O)O)c2)ccc(C(=O)CC(C)(C)C)c1O [compound 97, 3-[4-(3,3-Dimethylbutanoyl)-3-hydroxy-2-methylphenoxy]benzoic acid]
EC50 (Rat mGlu2): 1380 nM
EC50 (Rat mGlu3): > 10000 nM

SMILES: Cc1c(OCCCCCOc2cccc(C(=O)O)c2C)cccc1C(=O)O [compound 98, 3-[5-(3-Carboxy-2-methylphenoxy)pentyloxy]-2-methylbenzoic acid]
EC50 (Rat mGlu2): > 10000 nM
EC50 (Rat mGlu3): > 30000 nM

SMILES: COc1ccc(C(=O)O)cc1OCCCCOc1ccc(C(=O)C(C)(C)C)c(O)c1C [compound 105, 3-(4-(3-Hydroxy-2-methyl-4-pivaloylphenoxy)butoxy)-4-methoxybenzoic acid]
EC50 (Rat mGlu2): 288 nM
EC50 (Rat mGlu3): 743 nM

SMILES: Cc1c(OCc2cnc(-c3cccc(C(=O)O)c3)cn2)ccc(C(=O)C(C)(C)C)c1O [compound 110, 3-(5-((3-Hydroxy-2-methyl-4-pivaloylphenoxy)methyl)pyrazin-2-yl)benzoic acid]
EC50 (Rat mGlu2): 1040 nM
EC50 (Rat mGlu3): 327 nM

SMILES: CCCC(=O)c1ccc(OCCCCCOc2ccc(C(=O)CCC)c(O)c2C)c(C)c1O [compound 111, 1-{4-[5-(4-Butanoyl-3-hydroxy-2-methylphenoxy)pentyloxy]-2-hydroxy-3-methylphenyl}butan-1-one]
EC50 (Rat mGlu2): > 10000 nM
EC50 (Rat mGlu3): > 30000 nM

SMILES: Cc1c(OCc2cnc(-c3cccc(C(=O)NC4CC4)c3)cn2)ccc(C(=O)CC(C)(C)C)c1O [compound 113, N-Cyclopropyl-3-(5-((4-(3,3-dimethylbutanoyl)-3-hydroxy-2-methylphenoxy)methyl)pyrazin-2-yl)benzamide]
EC50 (Rat mGlu2): 1270 nM
EC50 (Rat mGlu3): 333 nM

SMILES: Cc1c(OCc2cnc(-c3cccc(S(N)(=O)=O)c3)cn2)ccc(C(=O)CC(C)(C)C)c1O [compound 117, 3-(5-((4-(3,3-Dimethylbutanoyl)-3-hydroxy-2-methylphenoxy)methyl)pyrazin-2-yl)benzenesulfonamide]
EC50 (Rat mGlu2): > 30000 nM
EC50 (Rat mGlu3): > 30000 nM

SMILES: Cc1c(OCc2ccc(-c3cccc(C(=O)O)c3)nn2)ccc(C(=O)CC(C)(C)C)c1O [compound 119, 3-(6-((4-(3,3-Dimethylbutanoyl)-3-hydroxy-2-methylphenoxy)methyl)pyridazin-3-yl)benzoic acid]
EC50 (Rat mGlu2): 916 nM
EC50 (Rat mGlu3): 616 nM

SMILES: COc1ccc(C(=O)O)cc1OCCCCOc1ccc(C(=O)Cc2ccccc2)c(O)c1C [compound 120, 3-(4-(3-Hydroxy-2-methyl-4-(2-phenylacetyl)phenoxy)butoxy)-4-methoxybenzoic acid]
EC50 (Rat mGlu2): 220 nM
EC50 (Rat mGlu3): 642 nM

SMILES: Cc1c(OCc2cnc(-c3cccc(-c4noc(=S)[nH]4)c3)cn2)ccc(C(=O)CC(C)(C)C)c1O [compound 123, 1-(2-Hydroxy-3-methyl-4-((5-(3-(5-thioxo-4,5-dihydro-1,2,4-oxadiazol-3-yl)phenyl)pyrazin-2-yl)methoxy)phenyl)-3,3-dimethylbutan-1-one]
EC50 (Rat mGlu2): 2520 nM
EC50 (Rat mGlu3): 2640 nM

SMILES: Cc1c(OCc2cnc(-c3cccc(-c4noc(=O)[nH]4)c3)cn2)ccc(C(=O)CC(C)(C)C)c1O [compound 124, 3-(3-(5-((4-(3,3-Dimethylbutanoyl)-3-hydroxy-2-methylphenoxy)methyl)pyrazin-2-yl)phenyl)-1,2,4-oxadiazol-5(4H)-one]
EC50 (Rat mGlu2): 2480 nM
EC50 (Rat mGlu3): 1690 nM

The remaining lines, values ahead:

EC50 (Rat mGlu2): 322 nM
EC50 (Rat mGlu3): 923 nM
SMILES: COc1ccc(C(=O)O)cc1OCc1cccc(COc2ccc(C(=O)CC(C)(C)C)c(O)c2C)c1 [compound 90, 3-((3-((4-(3,3-Dimethylbutanoyl)-3-hydroxy-2-methylphenoxy)methyl)benzyl)oxy)-4-methoxybenzoic acid]

EC50 (Rat mGlu2): 57 nM
EC50 (Rat mGlu3): 234 nM
SMILES: COc1ccc(C(=O)O)cc1OCCCOc1ccc(C(=O)CC(C)(C)C)c(O)c1C [compound 92, 3-{3-[4-(3,3-Dimethylbutanoyl)-3-hydroxy-2-methylphenoxy]propoxy}-4-methoxybenzoic acid]

EC50 (Rat mGlu2): 207 nM
EC50 (Rat mGlu3): 1220 nM
SMILES: COc1ccc(C(=O)O)cc1OCCOc1ccc(C(=O)CC(C)(C)C)c(O)c1C [compound 93, 3-{2-[4-(3,3-Dimethylbutanoyl)-3-hydroxy-2-methylphenoxy]ethoxy}-4-methoxybenzoic acid]

EC50 (Rat mGlu2): 663 nM
EC50 (Rat mGlu3): > 30000 nM
SMILES: CCCC(=O)c1ccc(OCOc2cccc(C(=O)O)c2C)c(C)c1O [compound 95, 3-[(4-Butanoyl-3-hydroxy-2-methylphenoxy)methoxy]-2-methylbenzoic acid]

EC50 (Rat mGlu2): 167 nM
EC50 (Rat mGlu3): > 30000 nM
SMILES: CCCC(=O)c1ccc(OCC(=O)c2cccc(-c3cccc(C(=O)O)c3C)c2)c(C)c1O [compound 99, 3-{3-[2-(4-Butanoyl-3-hydroxy-2-methylphenoxy)acetyl]phenyl}-2-methylbenzoic acid]

EC50 (Rat mGlu2): 535 nM
EC50 (Rat mGlu3): 523 nM
SMILES: Cc1c(OCc2cnc(-c3ccc(C(=O)O)c(Cl)c3)cn2)ccc(C(=O)CC(C)(C)C)c1O [compound 106, 4-(5-{[4-(3,3-Dimethylbutanoyl)-3-hydroxy-2-methylphenoxy]methyl}pyrazin-2-yl)-2-chlorobenzoic acid]

EC50 (Rat mGlu2): 254 nM
EC50 (Rat mGlu3): 2140 nM
SMILES: CCCC(=O)c1ccc(OCc2cnc(-c3ccc(C(=O)O)c(Cl)c3)cn2)c(C)c1O [compound 107, 4-{5-[(4-Butanoyl-3-hydroxy-2-methylphenoxy)methyl]pyrazin-2-yl}-2-chlorobenzoic acid]

EC50 (Rat mGlu2): 110 nM
EC50 (Rat mGlu3): > 30000 nM
SMILES: CCCC(=O)c1ccc(OCCCCCOc2cnc(C)c(C(=O)O)c2)c(C)c1O [compound 108, 5-[5-(4-Butanoyl-3-hydroxy-2-methylphenoxy)pentyloxy]-2-methylpyridine-3-carboxylic acid]

EC50 (Rat mGlu2): 217 nM
EC50 (Rat mGlu3): 281 nM
SMILES: Cc1c(OCc2cncc(-c3cccc(C(=O)O)c3)n2)ccc(C(=O)CC(C)(C)C)c1O [compound 112, 3-(6-((4-(3,3-Dimethylbutanoyl)-3-hydroxy-2-methylphenoxy)methyl)pyrazin-2-yl)benzoic acid]

EC50 (Rat mGlu2): 391 nM
EC50 (Rat mGlu3): 258 nM
SMILES: Cc1c(OCc2ccnc(-c3cccc(C(=O)O)c3)n2)ccc(C(=O)CC(C)(C)C)c1O [compound 114, 3-(4-((4-(3,3-Dimethylbutanoyl)-3-hydroxy-2-methylphenoxy)methyl)pyrimidin-2-yl)benzoic acid]

EC50 (Rat mGlu2): 482 nM
EC50 (Rat mGlu3): 1020 nM
SMILES: CCCC(=O)c1ccc(OCc2cnc(-c3cccc(C(=O)O)c3)cn2)c(C)c1O [compound 118, 3-(5-((4-Butyryl-3-hydroxy-2-methylphenoxy)methyl)pyrazin-2-yl)benzoic acid]

EC50 (Rat mGlu2): 782 nM
EC50 (Rat mGlu3): 593 nM
SMILES: Cc1c(OCc2cnc(-c3cccc(C(=O)O)c3)cn2)ccc(C(=O)Cc2ccccc2)c1O [compound 121, 3-(5-((3-Hydroxy-2-methyl-4-(2-phenylacetyl)phenoxy)methyl)pyrazin-2-yl)benzoic acid]

EC50 (Rat mGlu2): 539 nM
EC50 (Rat mGlu3): 282 nM
SMILES: Cc1c(OCc2cnc(-c3cccc(-c4nn[nH]n4)c3)cn2)ccc(C(=O)CC(C)(C)C)c1O [compound 122, 1-(4-((5-(3-(2H-Tetrazol-5-yl)phenyl)pyrazin-2-yl)methoxy)-2-hydroxy-3-methylphenyl)-3,3-dimethylbutan-1-one]
